Results from patent US4482722A, “Ester of metronidazole with N,N-dimethylglycine and acid addition salt thereof” (A/S Dumex (Dumex Ltd.), priority 1982, dated 1984).
Several values for one entry are separate records, joined by “and”; a condition that tells them apart may be missing. Identical values can stand only once. Counter-ions that a name gives are not always drawn. Like-named read-outs stand apart in the source and are kept apart here.

Key:
[1] = Hydrolysis to metronidazole in 0.05M phosphate buffer pH 7.4; assay type: physicochemical; settings: pH 7.4, 37° C, read-out: t1/2 in buffer
[2] = Hydrolysis to metronidazole in human plasma (in vitro); assay type: in vitro ADME
[3] = compound itself (uncleaved ester); cited from earlier work
[4] = after parenteral administration; cited from earlier work
[5] = cited from earlier work
[6] = Intravenous cross-over study in two beagle dogs, plasma concentrations of ester, metronidazole and metabolites; assay type: in vivo
Description: (§1) To test the assumption that the N,N-dimethylglycine ester would be a suitable water-soluble prodrug of metronidazole for parenteral administration, metronidazole and its N,N-dimethylglycine ester were given intravenously to two beagle dogs in a cross-over study.

[7] = Local tolerance after intravenous injection in dogs; assay type: in vivo, beagle dogs
Description: as §1

[8] = pH of aqueous solutions of the hydrochloride; assay type: physicochemical; settings: 1-20% w/v aqueous solutions
[9] = Solubility in water / aqueous solution; assay type: physicochemical
[10] = Initial rate of formation of metronidazole and time to begin precipitation, calculated at 23° C (Table 2); assay type: physicochemical
Description: Since t10% for the ester is 73 h at 23° C., the results given in Table 2 indicate that the stability of aqueous solutions of the prodrug ester will only be limited by the potential precipitation of metronidazole formed upon hydrolysis in those cases where the concentration of the ester in aqueous solutions exceeds about 20%.

[11] = Effect of temperature on rate of hydrolysis in acetate buffer pH 4.4 (Arrhenius plot); assay type: physicochemical
Description: The effect of temperature on the rate of hydrolysis of metronidazole N,N-dimethylglycinate was studied in 0.05M acetate buffer of pH 4.4 over the temperature range 23°-50° C.
The results obtained are illustrated in FIG. 1 of the drawings. […] Based on the slope of said plot an activation energy of 17.7 kcal mole^-1 was calculated. Based on said Arrhenius type plot the stability of aqueous solutions of the ester may be predicted at various temperatures.

[12] = Hydrolysis in 80% dog plasma in vitro; assay type: in vitro ADME; settings: 80% plasma, 37° C
Description: As noted below the rapid and quantitative formation of metronidazole seen after administration of the ester indicate, however, that the rate of ester disappearance is solely or predominantly due to the hydrolytic conversion.

[13] = published data; cited from earlier work
[14] = compared with metronidazole at the same dosage level; cited from earlier work
[15] = 80% plasma, 80% human plasma, pH 7.4, 37° C, read-out: t1/2 in human plasma

Cc1ncc([N+](=O)[O-])n1CCOC(=O)CCN
half-life [1]: 5.25 h | half-life [2, 15]: 3.45 h

Cc1ncc([N+](=O)[O-])n1CCOC(=O)CCN(C)C
half-life [1]: 0.867 h | half-life [2, 15]: 0.767 h

Cc1ncc([N+](=O)[O-])n1CCOC(=O)CCCN(C)C
half-life [1]: 9.67 h | half-life [2, 15]: 5.57 h

Cc1ncc([N+](=O)[O-])n1CCOC(=O)CCC(=O)O
microbiological activity (in words) [3]: microbiologically inactive | cleavage of the ester in blood serum (in words) [4]: very slow | solubility in water (in words) ([5]; prior art esters): has the required solubility in water

Cc1ncc([N+](=O)[O-])n1CC(=O)O [2-Methyl-5-nitroimidazole-1-aceticacid]
plasma concentration of metabolite (in words) ([6]; dogs, i.v. ester hydrochloride (30 mg/kg metronidazole equivalents) or metronidazole (10 mg/kg)): could not be detected in measurable concentrations

Cc1ncc([N+](=O)[O-])n1CCOC(=O)CN1CCN(C)CC1 [4-Methyl-1-piperazinoacetate]
half-life [1]: 28.7 h | half-life [2, 15]: 8.72 h

Cc1ncc([N+](=O)[O-])n1CCOC(=O)CN [Glycinate]
half-life [1]: 1.92 h | half-life [2, 15]: 0.683 h

Cc1ncc([N+](=O)[O-])n1CCOC(=O)CN(C)C [Metronidazole N,N-dimethylglycinate hydrochloride]
signs of pain or local toxicity [7]: No signs of pain or local toxicity | pH of the 1-20% w/v solutions [8]: 4.4-4.6 | solubility ([9]; water, 20° C, read-out: solubility in water): > 500000 µg/mL and > 1.7e+06 µM | conversion to metronidazole (in words) ([6]; i.v., dogs): rapidly and completely converted to metronidazole | (d[M]/dt)i, apparent zero-order initial rate of formation of metronidazole ([10]; 50 mg ml^-1 hydrochloride): 0.042 mg/mL/h | tpt, time for metronidazole to begin precipitation ([10]; 50 mg ml^-1 hydrochloride): 238 h | (d[M]/dt)i, apparent zero-order initial rate of formation of metronidazole ([10]; 100 mg ml^-1 hydrochloride): 0.084 mg/mL/h | tpt, time for metronidazole to begin precipitation ([10]; 100 mg ml^-1 hydrochloride): 119 h | (d[M]/dt)i, apparent zero-order initial rate of formation of metronidazole ([10]; 200 mg ml^-1 hydrochloride): 0.168 mg/mL/h | tpt, time for metronidazole to begin precipitation ([10]; 200 mg ml^-1 hydrochloride): 60 h | (d[M]/dt)i, apparent zero-order initial rate of formation of metronidazole ([10]; 300 mg ml^-1 hydrochloride): 0.252 mg/mL/h | tpt, time for metronidazole to begin precipitation ([10]; 300 mg ml^-1 hydrochloride): 40 h

CCCNCC(=O)OCCn1c([N+](=O)[O-])cnc1C [N--Propylglycinate]
half-life [1]: 1.5 h | half-life [2, 15]: 0.133 h

Cc1ncc([N+](=O)[O-])n1CCOC(=O)CN(C)C [metronidazole N,N-dimethylglycinate]
half-life [1]: 4.17 h | activation energy of hydrolysis ([11]; 0.05M acetate buffer pH 4.4, 23°-50° C, Arrhenius plot): 17.7 kcal/mol | t10% (time in which 10% of the ester is degraded) ([11]; pH 4.4, 4° C): 576 h | t10% (time in which 10% of the ester is degraded) ([11]; pH 4.4, 15° C): 166 h | t10% (time in which 10% of the ester is degraded) ([11]; pH 4.4, 23° C): 73 h | half-life of disappearance of the ester in dogs ([6]; i.v. hydrochloride, 30 mg/kg metronidazole equivalents, one value per dog, 30 mg/kg): approximately 3 min and ~7 min | hydrolysis in the dogs (in words) ([6]; i.v., 30 mg/kg metronidazole equivalents): hydrolyzed rapidly | pattern of metabolite formation (in words) ([6]; i.v., dogs, compared with injection of metronidazole): quite similar to that observed after injection of metronidazole | half-life [2, 15]: 0.2 h | half-life ([2]; human plasma or blood, in vitro, read-out: half-life of hydrolysis in human plasma or blood): 0.15 to 0.2 h | half-life [12]: 0.417 h

Cc1ncc([N+](=O)[O-])n1CCO [metronidazole]
solubility ([9]; aqueous solution, pH>3, 25° C, read-out: solubility in aqueous solutions): 10000 µg/mL and 58000 µM | solubility in an aqueous solution ([5]; background statement): about 100 mg/10 ml | solubility augmented by solubilizers ([5]; with gentisic acid (1:4) or with co-solvents (prior art)): 500-650 mg/10 ml

Cc1ncc([N+](=O)[O-])n1CCOP(=O)(O)O [phosphate ester]
rate of conversion to metronidazole in vivo (in words) [13]: rather slow rate of conversion to metronidazole in vivo | bioavailability of metronidazole to rats (in words) [14]: significantly lower than that obtained with metronidazole at the same dosage level
